Test results published in publication PMC6728334 (Scientific Reports, 2019).
Values joined by “and” are separate entries in the source; they are usually repeats but may differ in a detail not shown here. Equal entries are not always repeated. “Also recorded” adds a separate entry of the source. Where two headings read alike, the source gives them in different places.

What was measured:
[1] = test system: PCNA ubiquitination (RFC, Uba1, Rad6, Rad18, PCNA, ubiquitin); assay: Reconstituted PCNA ubiquitination cascade, Western blot quantitation; type: biochemical, human; details: for IC50: 15 min preincubation, 2 h with ATP, 2% DMSO, nonlinear regression, read-out: IC50 for inhibition of PCNA ubiquitination; for Activity in the PCNA ubiquitination assay (in words): up to 500 μM
Description: The PCNA loading and ubiquitination cascade was reconstituted in 96-well white round-bottom polypropylene plates (Greiner) in a buffer consisting of 40 mM Tris-HCl, pH 7.5, 8 mM MgCl2, and 10% glycerol with 2.5 nM nicked circular pUC19, 50 nM RFC, 50 nM Uba1, 250 nM Rad6–Rad18 dimer, 50 nM FLAG-PCNA, and 250 nM biotin-ubiquitin (final concentrations). Compounds were added to the samples, with preincubation for 15 min at 25 °C before addition of ATP to a final concentration of 2 mM (to initiate the reaction cascade), followed by incubation for 2 h at 25 °C. The reactions were then terminated by addition of EDTA to 20 mM for Alpha assays or Laemmli sample buffer for Western blot analyses. For Alpha assays, reaction mixtures were diluted in buffer containing streptavidin-conjugated donor beads and anti-FLAG antibody-conjugated acceptor beads in opaque white microplates under low-light conditions, as recommended by the Alpha bead manufacturer, PerkinElmer. The plates were read on a Tecan Spark microplate reader at 23 °C. For Western blot analyses, FLAG-PCNA was detected with anti-FLAG antibody, and quantitations from the Western blot images was performed with NIH ImageJ software[74] and then analyzed with GraphPad Prism software.

Uba1 [2] = molecular target: T1, Uba1 (Homo sapiens, UniProt P22314); assay: Uba1~ubiquitin thioester formation (Uba1, GST-ubiquitin, ATP; silver-stained gels); type: biochemical; details: for Activity in the Uba1~ubiquitin thioester formation assay (in words): up to 500 μM
T1 construct: His; host or cells: E. coli BL21(DE3)
T1 sequence (P22314 1-1058): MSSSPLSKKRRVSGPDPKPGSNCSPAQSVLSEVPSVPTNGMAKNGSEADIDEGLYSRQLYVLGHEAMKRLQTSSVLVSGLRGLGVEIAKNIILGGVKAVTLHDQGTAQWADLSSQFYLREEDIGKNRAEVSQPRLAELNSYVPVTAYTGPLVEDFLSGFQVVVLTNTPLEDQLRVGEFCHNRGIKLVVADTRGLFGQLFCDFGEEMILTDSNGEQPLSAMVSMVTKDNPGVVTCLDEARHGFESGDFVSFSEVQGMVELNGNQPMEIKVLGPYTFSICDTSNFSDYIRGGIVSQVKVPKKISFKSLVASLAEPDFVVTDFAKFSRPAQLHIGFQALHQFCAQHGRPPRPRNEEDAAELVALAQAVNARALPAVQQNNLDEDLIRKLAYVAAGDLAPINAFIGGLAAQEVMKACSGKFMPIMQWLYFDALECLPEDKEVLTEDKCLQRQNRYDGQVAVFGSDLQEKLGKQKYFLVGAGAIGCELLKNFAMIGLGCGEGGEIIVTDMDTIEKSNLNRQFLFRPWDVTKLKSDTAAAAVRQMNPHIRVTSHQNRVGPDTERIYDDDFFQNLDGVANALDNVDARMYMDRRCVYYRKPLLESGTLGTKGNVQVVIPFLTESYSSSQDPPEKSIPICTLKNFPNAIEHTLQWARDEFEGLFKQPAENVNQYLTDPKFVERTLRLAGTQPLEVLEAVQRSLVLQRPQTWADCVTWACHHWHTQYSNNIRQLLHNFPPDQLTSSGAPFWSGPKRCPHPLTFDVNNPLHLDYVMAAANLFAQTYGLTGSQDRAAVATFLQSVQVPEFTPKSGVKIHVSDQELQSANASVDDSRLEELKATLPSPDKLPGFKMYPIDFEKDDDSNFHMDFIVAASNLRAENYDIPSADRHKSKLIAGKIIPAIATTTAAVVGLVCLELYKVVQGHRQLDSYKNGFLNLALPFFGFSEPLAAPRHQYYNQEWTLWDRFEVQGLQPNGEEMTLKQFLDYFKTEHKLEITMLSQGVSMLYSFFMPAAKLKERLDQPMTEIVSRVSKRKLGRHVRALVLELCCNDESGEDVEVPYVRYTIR

[3] = test system: Uba1-overexpressing HEK 293 cells; assay: Cell survival in Uba1-overexpressing cells vs empty vector-transfected control cells; type: cell-based, human; details: 24-h treatment at IC50 of each compound (Myr 3 mM, DM 650 μM; puromycin 1 and 2 μM)
Description: (§1) HEK 293FT cells were evaluated for survival following compound treatments by the Alamar Blue (resazurin) assay. Cells were plated onto 96-well plates at 4.8 × 10^4 cells/well in 0.5% FBS-containing DMEM at 37 °C and 5% CO2. After 24 h, compounds were added. After 24-h treatment, resazurin was added to a final concentration of 0.12 mM. Following 4-h incubation, conversion to the resorufin product was measured (with excitation at 542 nm and emission at 590 nm) on a fluorescence plate reader.
(§2) HEK 293FT cells (1.5 × 10^6) were plated onto 6-cm plates in 5 ml of DMEM with 10% FBS and allowed to grow for 24 h at 37 °C and 5% CO2. For transfections, 6 μg of plasmid DNA (empty vector containing FLAG-tag sequence only, FLAG-Uba1, or FLAG-ubiquitin) and 10 μl of Lipofectamine 2000 were used for each plate. The DNA and the reagent were diluted separately in 500 μl of Opti-MEM (Gibco), and each was mixed by vortexing. After 5-min incubation, the two tubes were combined and incubated for another 20 min. Prior to adding the transfection solution to the cells, the medium was replaced with 4 ml of Opti-MEM. The transfection solution was then added dropwise. After 3-h incubation, the medium was changed to 0.5% FBS-containing DMEM, and the cells were plated for cell survival experiments, as above.

HEK 293FT cells = assay: Cell survival, Alamar Blue (resazurin) assay; type: cell-based, human; details: for Activity on cell viability / survival (in words) / IC50: 24-h treatment; for IC50: 2% DMSO, read-out: IC50 for inhibition of cell survival
Description: For cellular experiments, HEK 293FT cells (a fast-growing SV40 large T antigen-transformed strain of HEK 293 cells designed for enhanced transgene expression in transient transfections) were grown in growth medium consisting of Dulbecco’s modified Eagle’s medium (DMEM; Sigma-Aldrich), supplemented with 10% fetal bovine serum (FBS; Gibco) in a humified cell culture incubator at 37 °C with 5% CO2.
as §1

[4] = test system: ubiquitin-overexpressing HEK 293 cells; assay: Cell survival in ubiquitin-overexpressing cells vs empty vector-transfected control cells; type: cell-based, human; details: 24-h treatment at IC50 of each compound (Myr 3 mM, DM 650 μM; puromycin 1 and 2 μM)
Description: as §1, §2

Uba1 [5] = molecular target: T1, Uba1; assay: Reversibility: Uba1 preincubation, washout by centrifugal filtration, then PCNA ubiquitination; type: biochemical; details: 30 μM compound preincubated with Uba1 for 2 h, then washed out
Description: Samples were then transferred to YM-30 Microcon centrifugal concentrators (Merck Millipore), diluted in buffer (40 mM Tris-HCl, pH 7.5, 8 mM MgCl2, and 10% glycerol), then serially centrifuged with additions of buffer to the remaining retentate between each spin, for final dilutions of compounds to <0.05% of original concentrations. The resulting samples were then tested in PCNA ubiquitination reactions.

[6] = Uba1 preincubated with compound 15 min, 2 h reaction, 2% DMSO, read-out: IC50 for inhibition of Uba1~ubiquitin thioester formation

| SMILES | IC50 [1] [µM] | Activity in the PCNA ubiquitination assay (in words) [1] | IC50 (Uba1 [2]; [6]) | Activity in the Uba1~ubiquitin thioester formation assay (in words) (Uba1 [2]) | Effect of Uba1 overexpression on cell survival [3] | Activity on cell viability / survival (in words) (HEK 293FT cells) | IC50 (HEK 293FT cells) [µM] | IC50 (HEK 293FT cells; Homo sapiens, HEK293FT, 24 h) [µM] | Effect of ubiquitin overexpression on cell survival [4] | Activity in the cell viability experiments at 500 μM (HEK 293FT cells; 24 h) | Uba1~ubiquitin thioester formation, ubiquitin alone preincubated with compound before Uba1 and ATP (Uba1 [2]; EGCG 10 μM, Myr 50 μM) | IC50 (Uba1 [2]; Fig. 6, read-out: IC50 (Uba1~Ub)) [µM] | Reversibility of inhibition of Uba1 and PCNA ubiquitination after washout (Uba1 [5]) | IC50 (Uba1 [2]; Fig. 6, unit printed as M, read-out: IC50 (Uba1~Ub)) [µM] |
| --- | --- | --- | --- | --- | --- | --- | --- | --- | --- | --- | --- | --- | --- | --- |
| Oc1cc(O)c2c(c1)O[C@H](c1cc(O)c(O)c(O)c1)[C@H](O)C2 [EGC, (–)-Epigallocatechin] | 43.3 | weak activity | 7.6 µM and 7.58 µM | weak activity | not affected; also recorded: Does not protect | measurable cytostatic/cytotoxic activity | 176 | 176 | not affected; also recorded: Does not protect |  |  |  |  |  |
| Oc1cc(O)c2c(c1)O[C@H](c1ccc(O)c(O)c1)[C@@H](O)C2 [Cat, (+)-Catechin] | > 500 | inactive | > 500 µM | inactive |  |  |  | > 500 |  | only very weak activity |  |  |  |  |
| CCCCCCCCOC(=O)c1cc(O)c(O)c(O)c1 [OG, n-Octyl gallate] | 10.3 | active | 80.6 µM | active | Protects | active |  | 38.7 | Protects |  |  |  |  |  |
| COc1ccc(C[C@H](N)C(=O)N[C@H]2[C@@H](O)[C@H](n3cnc4c(N(C)C)ncnc43)O[C@@H]2CO)cc1 [puromycin, reference compound] |  |  |  |  | no differences |  |  |  | no differences |  |  |  |  |  |
| Oc1cc(O)c2c(c1)O[C@H](c1ccc(O)c(O)c1)[C@H](O)C2 [EC, (–)-Epicatechin] | > 500 | inactive | > 500 µM | inactive |  |  |  | > 500 |  | only very weak activity |  |  |  |  |
| O=C(O[C@@H]1Cc2c(O)cc(O)cc2O[C@@H]1c1ccc(O)c(O)c1)c1cc(O)c(O)c(O)c1 [ECG, (–)-Epicatechin-3-gallate] | 0.537 | active | 4.2 µM and 4.22 µM | active | mitigated; also recorded: Protects | active | 262 | 262 | mitigated; also recorded: Protects |  |  |  |  |  |
| O=c1c(O)c(-c2cc(O)c(O)c(O)c2)oc2cc(O)cc(O)c12 [Myr, Myricetin] | 1.21 | active | 0.721 µM | active | Protects | very weak activity |  | > 500 | Protects | only very weak activity | resulted in inhibition | 0.721 | reversible |  |
| CCCOC(=O)c1cc(O)c(O)c(O)c1 [PG, n-Propyl gallate] | > 500 | inactive | > 500 µM | inactive | not mitigated; also recorded: Does not protect | little effects | 176 | 176 | not mitigated; also recorded: Does not protect |  |  |  |  |  |
| CCCCCCCCCCCCOC(=O)c1cc(O)c(O)c(O)c1 [DG, n-Dodecyl gallate] | 1.63 | active | 35 µM | active | Does not protect | active | 33.5 | 33.5 | Protects |  |  |  |  |  |
| O=C1c2c(O)cc(O)cc2O[C@H](c2cc(O)c(O)c(O)c2)[C@H]1O [DM, (+)-Dihydromyricetin] | 66.4 | active | 14.3 µM |  | Does not protect | very weak activity |  | > 500 | Protects | only very weak activity |  |  |  | 14.3 |
| O=C(O)c1cc(O)c(O)c(O)c1 [GA, Gallic acid] | > 500 | inactive | > 500 µM | inactive | not mitigated; also recorded: Does not protect | little effects | 241 | 241 | not mitigated; also recorded: Does not protect |  |  |  |  |  |
